Key:
[1] = system: normal fibroblastic epithelial cell line (HFL1); experiment: MTT cytotoxicity assay, HFL1; type: cell-based; details: HFL1 cells
Protocol: (§1) Three cell lines were used to determine the cytotoxicity of the complexes, a human cervical carcinoma line (HeLa), a human radical growth phase melanoma cell line (WM35), and a normal fibroblastic epithelial cell line (HFL1) using the MTT method. The cells were exposed to C1 and C2 complexes in different concentrations (50, 25, 12.5, 2, and 0.2 µM) at 24, 48, and 72 h. As positive contro, cisplatin was used.
(§2) To determine the cytotoxicity of the copper complexes, three cell lines were used: a human cervical carcinoma line (HeLa), a human radical growth phase melanoma cell line (WM35), and a normal fibroblastic epithelial cell line (HFL1). The cell lines were obtained from ATCC (American Type Cell Collection, Manassas, VA 20110-2209, USA) and were maintained in DMEM (Sigma-Aldrich, Saint Louis, Missouri, USA) supplemented with 10% fetal bovine serum (Hyclone), 1 mM glutamine (Sigma-Aldrich), and 1% antibiotic antimycotic 100× (Sigma-Aldrich). The cells were cultured at 37 °C in an atmosphere of 5% CO2 and 95% relative humidity.
(§3) The cytotoxicity assays were performed using the MTT assay (3-(4,5-dimethylthiazol-2-yl)-2,5-diphenyl tetrazolium bromide-Sigma Aldrich). Cells were plated at a density of 1 × 10^5 cells/well in 96-well plates for 24 h in normal propagation media. The cultures were then exposed to C1 and C2 complexes in different concentrations (50, 25, 12.5, 2, and 0.2 µM). The complexes were first solubilized in DMSO (Sigma) and then serial dilutions in media were performed until the final concentration of DMSO was less than 1%. As a positive control, cisplatin (Ebewe Pharma Ges.m.b.H. Nfg. KG, Austria) was used, in the same concentrations as the complexes. As a negative control, cell lines cultivated in normal expansion medium with the same amount of DMSO added were used. The cellular viability was determined using the MTT assay at 24, 48, and 72 h, respectively. Formazan particles were solubilized with DMSO and absorbances were determined at 550 nm using a microplate reader (Bio-Rad, Hercules, CA, USA). The cytotoxic activity, expressed as IC50 values representing the complex solution required to inhibit 50% of the cell proliferation, were calculated from the calibration curve by nonlinear regression. Each experiment was carried out in triplicate.

[2] = SOD mimetic activity, xanthine/xanthine oxidase system, NBT reduction; type: biochemical; details: pH 7.8, read-out: SOD-like activity IC50 (50% inhibition of NBT reduction)
Protocol: The SOD-like activities of complexes C1 and C2 were determined by an indirect method using the xanthine/xanthine oxidase system as the source of superoxide radicals. […] The IC50 value for native Cu2Zn2SOD is 0.006 μΜ. Thus, the IC50 values for both complexes are higher than the IC50 value for native Cu2Zn2SOD but are similar to those of complexes with related sulfonamide ligands presented in the literature.
The in vitro SOD mimetic activities of the complexes were assayed using the Oberley and Spitz method with some minor modifications. To generate a reproductible and constant flux of superoxide anions, xanthine (1.5 × 10^−4 M) and xanthine oxidase in 50 mM potassium phosphate buffer, pH = 7.8, were used. The superoxide anions were detected by the reduction of nitro blue tetrazolium (NBT) (5.6 × 10^−5 M) to blue formazane, which was determined spectrophotometrically at 560 nm. Different concentrations of the complexes (50, 25, 12.5, 2, and 0.2 μM) were prepared in 50 mM Tris-HCl buffer, pH = 7.8. For each determination, 0.1 mL complex solution + 0.1 mL xanthine oxidase were added to 0.8 mL of solution containing 0.69 mL potassium phosphate buffer (pH = 7.8), 0.025 mL NBT, and […]. The inhibition percentage of NBT reduction was used to determine the SOD activities of the complexes. The conversion of xanthine to uric acid was measured at 310 nm. The % inhibition of enzyme activity was subtracted from that of NBT. The IC50 values (the concentration of complex needed to yield 50% inhibition of NBT reduction) were determined from plots of % inhibition versus complex concentration. A Specord 200 Plus Spectrophotometer was used to perform the determinations and all reagents were purchased from Sigma-Aldrich.

[3] = system: Staphylococcus aureus ATCC 6538P; experiment: Disk diffusion method, S. aureus; type: cell-based; details: complexes 5 µL of 1 mg/mL; 25 µg Amoxicillin, 5 µg Norfloxacin; 24 h, 37 °C
Description: (§4) The disk diffusion method was used to determine the antibacterial activity of the C1 and C2 copper complexes on four reference microbial strains, two Gram-positive (Staphylococcus aureus and Bacillus cerreus) and two Gram-negative (Escherichia coli and Pseudomonas aeruginosa) strains. The disk diffusion method was used to determine the antibacterial activity of the C1 and C2 copper complexes. The method was adapted for the purposes of the current study, according to the standards developed by the Clinical and Laboratory Standards Institute. Four reference microbial strains, two Gram-positive (Staphylococcus aureus ATCC […] and Bacillus cerreus ATCC 14579) and two Gram-negative (Escherichia coli ATCC 10536 and Pseudomonas aeruginosa ATCC 27853) strains, were used for in vitro susceptibility testing. These reference microbial strains were obtained from the American Type Culture Collection (ATCC, Manassas, VA, USA). As positive controls, Amoxicillin (Oxoid Ltd., Basingstoke, UK) and Norfloxacin (Sigma-Aldrich) were used. For each of the four species, an initial suspension of bacterial cultures was inoculated on nutrient agar plates (Merck KGaA, Darmstadt, Germany), incubated for 24 h at 37 ± 2 °C and resuspended in a physiological saline buffer to a […] concentration (on a 0.5 McFarland scale), and further inoculated on Muëller Hinton agar plates (Merck KGaA, Darmstadt, Germany). […] After inoculation, the medium surface was dried and 8 wells were radially drilled 1.5 cm from the outer edge, 3 cm apart. From aliquot samples of 1 mg/mL of each copper complex dissolved in DMSO and incorporated in sterile liquid medium, 5 μL was placed in each of the 8 wells and left for 30 min to diffuse into the agar plates. The plates were then incubated for 24 h at 37 ± 2 °C. Then, 25 μg Amoxicillin and 5 μg Norfloxacin served as a positive controls, while DMSO 0.75% was used as a negative control. Readings were conducted by measuring the diameter of the inhibition zone (Halo Zone Test, in mm). The germ sensitivity of the copper complexes was estimated by comparing the diameter of the inhibition area to that generated by the regular antibiotics with known inhibition values. […] All tests were triplicated, and the measured diameters of the inhibition zone were expressed (in mm) as mean ± standard deviation.

[4] = system: Pseudomonas aeruginosa ATCC 27853; experiment: Disk diffusion method, P. aeruginosa; type: cell-based; details: complexes 5 µL of 1 mg/mL; 5 µg Norfloxacin; 24 h, 37 °C
Description: as §4

[5] = system: human cervical carcinoma line (HeLa); experiment: MTT cytotoxicity assay, HeLa; type: cell-based; details: HeLa cells
Protocol: as §1, §2, §3

Substance | IC50 ([1]; 24 h) [µM] | IC50 ([1]; 48 h) [µM] | IC50 ([1]; 72 h) [µM] | IC50 [2] [µM] | Halo Zone Test (diameter of the inhibition zone) [3] [mm] | Halo Zone Test (diameter of the inhibition zone) [4] [mm] | IC50 ([5]; 24 h) [µM] | IC50 ([5]; 48 h) [µM] | IC50 ([5]; 72 h) [µM]
[Cu(N-(5-Ethyl--[1,3,4]-Thiadiazole-2-yl) Naphtalenesulfonamidate)2(py)2(H2O)] [C2] | 18 ± 1.08 | 5.55 ± 0.22 | 2.03 ± 0.04 | 0.174 | 15 ± 0.44 | 19 ± 0.19 | 8.79 ± 0.21 | 4.06 ± 0.05 | 1.45 ± 0.09
[Cu(N-(5-(4-Methylphenyl)-[1,3,4]-Thiadiazole-2-yl) Naphtalenesulfonamidate)2(H2O)3] [C1] | 44.7 ± 0.51 | 7.38 ± 0.12 | 3.75 ± 0.15 | 0.283 | 13 ± 0.17 | 15 ± 0.32 | 33.18 ± 0.19 | 16.36 ± 0.12 | 6.47 ± 0.06
